Read-outs that look alike come from different tables or passages of the source.
Legend:
[1] = test system: HEK293 cells overexpressing APOL1 G2; assay: APOL1 G2 HEK293 cell rescue assay (reversal of cell death caused by overexpression of APOL1); assay type: cell-based; conditions: geometric mean of at least 2 assay runs, † = single assay run
Summary of the method: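 Each compound tested in duplicate wells on one plate per run, with values usually the geometric mean across at least two runs on different days, occasionally from one run only. Read-out: concentration giving half-maximal rescue of APOL1 G2 overexpression-induced death of HEK293 cells.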

[2] = test system: Trypanosoma brucei Lister 427 VSG221 with APOL1 G2 recombinant protein; assay: APOL1 G2 trypanosome cell rescue assay (Example B5); assay type: cell-based; conditions: geometric mean of at least 2 assay runs, † = single assay run
Summary of the method: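 Viability read by CellTiter-Glo luminescence after 20 h co-incubation (37° C, 5% CO2) of 250 trypanosomes/well in modified HMI-9 with test compound (duplicate 11-point, 2-fold dilutions, 0.4% DMSO) and APOL1 protein, […]. Protein: mature residues 28-398, E. coli inclusion-body refolded, tag cleaved, in DDM.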

[3] = Homo sapiens, HEK293, HEK293 overexpressing APOL1 G2
[4] = Trypanosoma brucei, 20 h, read-out: APOL1 G2 Trypanosome Rescue EC50, Trypanosoma brucei Lister 427 VSG221 with APOL1 G2 recombinant protein, 20 hours, CellTiter-Glo
[5] = read-out: APOL1 G2 Trypanosome Rescue EC50, Trypanosoma brucei Lister 427 VSG221 with APOL1 G2 recombinant protein, 20 hours, CellTiter-Glo

Structure (SMILES) | EC50 [1, 3] [nM] | EC50 [2, 4] [nM] | EC50 ([1]; HEK293 overexpressing APOL1 G2) [nM] | EC50 [2, 5] [nM]
C[C@@H](COc1ccc(S(C)(=O)=O)cc1)N1CCC2(CC1)C(=O)Nc1ccc(Cl)cc12 (single isomer, unassigned) [Compound 10] | 90.3 | 93.3 |  | 
C[C@@H](COc1ccc(S(C)(=O)=O)cc1)N1CCC2(CC1)C(=O)Nc1ccccc12 (single isomer, unassigned) [Compound 12] | 307 | 494 |  | 
C[C@@H](CN1CCC2(CC1)C(=O)Nc1ccccc12)Oc1ccc(S(C)(=O)=O)cc1 (single isomer, unassigned) [Compound 13] | 3010 | > 4000 |  | 
O=C1NCC2c3ccc(OCCN4CCC5(CC4)C(=O)Nc4ccc(Cl)cc45)cc3CCN12 (single isomer, unassigned) [Compound 116, (S) or (R)-5-chloro-1′-[2-({3-oxo-1H,2H,3H,5H,6H,10bH-imidazo[4,3-a]isoquinolin-8-yl}oxy)ethyl]-1,2-dihydrospiro[indole-3,4′-piperidin]-2-one] | 81.8 | 69.2 |  | 
O=C1NCC2c3ccc(OCCN4CCC5(CC4)C(=O)Nc4ccc(Cl)cc45)cc3CCN12 (single isomer, unassigned) [Compound 117, (R) or (S)-5-chloro-1′-[2-({3-oxo-1H,2H,3H,5H,6H,10bH-imidazo[4,3-a]isoquinolin-8-yl}oxy)ethyl]-1,2-dihydrospiro[indole-3,4′-piperidin]-2-one] |  |  | 81.5 | 117
N#Cc1ccc2c(c1)C1(CCN(CCOc3ccc4c(c3)CCN3C(=O)NCC43)CC1)C(=O)N2 (single isomer, unassigned) [Compound 120, (R) or (S)-2-oxo-1′-[2-({3-oxo-1H,2H,3H,5H,6H,10bH-imidazo[4,3-a]isoquinolin-8-yl}oxy)ethyl]-1,2-dihydrospiro[indole-3,4′-piperidine]-5-carbonitrile] |  | 346 | 324 | 
O=C1CCC2c3ccc(OCCN4CCC5(CC4)C(=O)Nc4ccc(Cl)cc45)cc3CCN12 (single isomer, unassigned) [Compound 122, (S) or (R)-5-chloro-1′-[2-({3-oxo-1H,2H,3H,5H,6H,10bH-pyrrolo[2,1-a]isoquinolin-8-yl}oxy)ethyl]-1,2-dihydrospiro[indole-3,4′-piperidin]-2-one] | 87.5 | 108 |  | 
O=C1CCC2c3ccc(OCCN4CCC5(CC4)C(=O)Nc4ccc(Cl)cc45)cc3CCN12 (single isomer, unassigned) [Compound 123, (R) or (S)-5-chloro-1′-[2-({3-oxo-1H,2H,3H,5H,6H,10bH-pyrrolo[2,1-a]isoquinolin-8-yl}oxy)ethyl]-1,2-dihydrospiro[indole-3,4′-piperidin]-2-one] |  |  | 79.5 | 76.9
CC(c1ccc(OCCN2CCC3(CC2)C(=O)Nc2ccc(C#N)cc23)cc1)S(C)(=O)=O (single isomer, unassigned) [Compound 134, (S) or (R)-1′-{2-[4-(1-methanesulfonylethyl)phenoxy]ethyl}-2-oxo-1,2-dihydrospiro[indole-3,4′-piperidine]-5-carbonitrile] | 199 | 277 |  | 
CC(c1ccc(OCCN2CCC3(CC2)C(=O)Nc2ccc(C#N)cc23)cc1)S(C)(=O)=O (single isomer, unassigned) [Compound 135, (R) or (S)-1′-{2-[4-(1-methanesulfonylethyl)phenoxy]ethyl}-2-oxo-1,2-dihydrospiro[indole-3,4′-piperidine]-5-carbonitrile] |  |  | 211 | 303
CC(c1c(F)cc(OCCN2CCC3(CC2)C(=O)Nc2ccc(C#N)cc23)cc1F)S(C)(=O)=O (single isomer, unassigned) [Compound 138, (S) or (R)-1′-{2-[3,5-difluoro-4-(1-methanesulfonylethyl)phenoxy]ethyl}-2-oxo-1,2-dihydrospiro[indole-3,4′-piperidine]-5-carbonitrile] | 78.2 | 165 |  | 
CC(c1c(F)cc(OCCN2CCC3(CC2)C(=O)Nc2ccc(C#N)cc23)cc1F)S(C)(=O)=O (single isomer, unassigned) [Compound 139, (R) or (S)-1′-{2-[3,5-difluoro-4-(1-methanesulfonylethyl)phenoxy]ethyl}-2-oxo-1,2-dihydrospiro[indole-3,4′-piperidine]-5-carbonitrile] |  |  | 133 | 147
CC(c1c(F)cc(OCCN2CCC3(CC2)C(=O)Nc2ccc(Cl)cc23)cc1F)S(C)(=O)=O (single isomer, unassigned) [Compound 142, (S) or (R)-5-chloro-1′-{2-[3,5-difluoro-4-(1-methanesulfonylethyl)phenoxy]ethyl}-1,2-dihydrospiro[indole-3,4′-piperidin]-2-one] | 48.3 | 35.3 |  | 
CC(c1c(F)cc(OCCN2CCC3(CC2)C(=O)Nc2ccc(Cl)cc23)cc1F)S(C)(=O)=O (single isomer, unassigned) [Compound 143, (R) or (S)-5-chloro-1′-{2-[3,5-difluoro-4-(1-methanesulfonylethyl)phenoxy]ethyl}-1,2-dihydrospiro[indole-3,4′-piperidin]-2-one] |  |  | 36.9 | 21.1
CN=S(C)(=O)c1ccc(OCCN2CCC3(CC2)C(=O)Nc2ccc(Cl)cc23)cc1 (single isomer, unassigned) [Compound 148, (S) or (R)-5-chloro-1′-(2-{4-[methyl(methylimino)oxo-λ^6-sulfanyl]phenoxy}ethyl)-1,2-dihydrospiro[indole-3,4′-piperidin]-2-one] | 107 | 61.8 |  | 
CN=S(C)(=O)c1ccc(OCCN2CCC3(CC2)C(=O)Nc2ccc(Cl)cc23)cc1 (single isomer, unassigned) [Compound 149, (R) or (S)-5-chloro-1′-(2-{4-[methyl(methylimino)oxo-λ^6-sulfanyl]phenoxy}ethyl)-1,2-dihydrospiro[indole-3,4′-piperidin]-2-one] |  |  | 101 | 51.8
CN=S(C)(=O)c1ccc(OCCN2CCC3(CC2)C(=O)Nc2ccc(C#N)cc23)cc1 (single isomer, unassigned) [Compound 151, (S) or (R)-1′-(2-{4-[methyl(methylimino)oxo-λ^6-sulfanyl]phenoxy}ethyl)-2-oxo-1,2-dihydrospiro[indole-3,4′-piperidine]-5-carbonitrile] | 397 | 347 |  | 
CN=S(C)(=O)c1ccc(OCCN2CCC3(CC2)C(=O)Nc2ccc(C#N)cc23)cc1 (single isomer, unassigned) [Compound 152, (R) or (S)-1′-(2-{4-[methyl(methylimino)oxo-λ^6-sulfanyl]phenoxy}ethyl)-2-oxo-1,2-dihydrospiro[indole-3,4′-piperidine]-5-carbonitrile] |  |  | 405 | 416
O=C1Nc2ccc(Cl)cc2C12CCN(CCOc1ccc(C3CCCS3(=O)=O)cc1)CC2 (single isomer, unassigned) [Compound 176, (S) or (R)-2-[4-(2-{5-chloro-2-oxo-1,2-dihydrospiro[indole-3,4′-piperidin]-1′-yl}ethoxy)phenyl]-1λ^6-thiolane-1,1-dione] | 46.9 | 44.6 |  | 
O=C1Nc2ccc(Cl)cc2C12CCN(CCOc1ccc(C3CCCS3(=O)=O)cc1)CC2 (single isomer, unassigned) [Compound 177, (R) or (S)-2-[4-(2-{5-chloro-2-oxo-1,2-dihydrospiro[indole-3,4′-piperidin]-1′-yl}ethoxy)phenyl]-1λ^6-thiolane-1,1-dione] |  |  | 78.2 | 84.4
CS(=O)(=O)c1ccc(OCCN2CCC3(CC2)C(=O)Nc2c(C#N)cc(Cl)cc23)cc1 [Compound 9, 5-chloro-1′-[2-(4-methanesulfonylphenoxy)ethyl]-2-oxo-1,2-dihydrospiro[indole-3,4′-piperidine]-7-carbonitrile] | 1760 | 1320 |  | 
CS(=O)(=O)CCCn1ncc2cc(OCCN3CCC4(CC3)C(=O)Nc3ccc(Cl)cc34)ccc21 [Compound 14, 5-chloro-1′-(2-{[1-(3-methanesulfonylpropyl)-1H-indazol-5-yl]oxy}ethyl)-1,2-dihydrospiro[indole-3,4′-piperidin]-2-one] | 130 | 127 |  | 
O=C1Nc2ccc(Cl)cc2C12CCN(CCOc1ccc3c(cnn3C3COC3)c1)CC2 [Compound 15, 5-chloro-1′-(2-{[1-(oxetan-3-yl)-1H-indazol-5-yl]oxy}ethyl)-1,2-dihydrospiro[indole-3,4′-piperidin]-2-one] | 124 | 124 |  | 
CC(C)n1ncc2cc(OCCN3CCC4(CC3)C(=O)Nc3ccc(Cl)cc34)ccc21 [Compound 16, 5-chloro-1′-(2-{[1-(propan-2-yl)-1H-indazol-5-yl]oxy}ethyl)-1,2-dihydrospiro[indole-3,4′-piperidin]-2-one] | 112 | 110 |  | 
O=C1Nc2ccc(Cl)cc2C12CCN(CCOc1ccc(S(=O)(=O)[C@H]3C[C@@H](O)C3)cc1)CC2 [Compound 17, 5-chloro-1′-[2-(4-{[(cis)-3-hydroxycyclobutyl]sulfonyl}phenoxy)ethyl]-1,2-dihydrospiro[indole-3,4′-piperidin]-2-one] | 60 | 36.7 |  | 

Source: US12344610B2, “APOL1 inhibitors and methods of use” (Maze Therapeutics, Inc., priority 2022, dated 2025)
